Where two headings read alike, the source gives them in different places.
Key:
[1] = biological target: SARM1 TIR (Homo sapiens (Human), UniProt Q6SZW1); assay: SARM1 TIR-based assay (bacterially expressed, tagged SARM1 TIR fragment on beads); type: biochemical; conditions: for Inhibitor: inhibitor of SARM1 TIR NAD cleavage activity; for Substrate: substrate of SARM1 TIR NAD cleavage activity
Excerpt: The present Example describes a SARM1 TIR-based Assay. This assay is similar to the assay described in Example 1, but allows for the identification and/or characterization of compounds that directly interact with the TIR domain, whereas the assay described in Example 1 can also identify compounds that disrupt SAM domain interactions. This assay makes use of the bacterial expression of a tagged version of the SARM1 TIR fragment that can be affinity purified. Displaying this artificial SARM1 TIR domain on a solid surface (i.e. affinity beads) generates an active NAD+ cleavage enzyme.
The TIR domain of SARM1 was tagged with a tandem STREP-TAG® at the N-terminus, and a polyhistidine tag at the C-terminus, and was cloned into a pET30a+ plasmid. The construct was then transformed into SHuffle® T7 Express Competent E. coli (New England BioLabs, Ipswich, MA) and single colonies were grown overnight. The next day, cultures were diluted in LB media, grown at 30° C. until they reached A600=0.4-0.8, when IPTG (0.5 mM final concentration) was added. The bacteria were grown for an additional 4 h, pelleted by centrifugation, washed with PBS and stored at −80° C. For protein purification, the frozen bacterial pellet was thawed on ice, resuspended in binding buffer (without protease inhibitors) and incubated with 100 μg/mL lysozyme for 15 min on ice. Protease inhibitor cocktail was then added and the cells were lysed by sonication.
The SARM1 TIR protein was first purified by Strep Tag affinity methods where bacterial lysates were incubated with […] (STREP-TACTIN®, IBA GmBH, Gottingen Germany) type 3 XT beads suspension (IBA Lifesciences) for 30 min. The beads were then washed three times with binding buffer, and bound proteins were eluted from MagStrep type 3 XT beads with 22.5 mM biotin for 25 min. Supernatant containing the eluted protein was separated from MagStrep beads, and incubated with 10 μL Co2+ DYNABEAD® (ThermoFisher Scientific, Waltham, MA) suspension for 30 min to bind SARM1-TIR proteins via the His tag. The beads were then washed at least two times with binding buffer and resuspended in 100 μL of binding buffer for NADase assay.
Ten microliters of purified SARM1-TIR laden beads were incubated with 5 μM NAD+ in reaction buffer (92.4 mM NaCl and 0.64×PBS). Reactions were carried out at 25° C. for the indicated amount of time and stopped by addition of 1M of perchloric acid (HClO4) and placing the tube on ice. NAD+ metabolites were extracted using HClO4/K2CO3 method and quantified by HPLC (see metabolite measurement below). For LC-MS/MS analysis, the extraction was performed using 50% methanol in distilled water and chloroform (see LC-MS/MS metabolite measurement below). […] Select potent inhibitors (622608, 622689) identified from SARM1 SAM-TIR lysate screen were added to the reaction at 5 μM. NAD normalized to control at 0 min.
Metabolites were isolated from enzyme reaction mixture by extracting with 1M HClO4, then neutralized with 3M K2CO3, and followed by separation by centrifugation. The supernatant (90 μL) containing the extracted metabolites was mixed with 0.5M Potassium Phosphate buffer (10 μL) and metabolites were analyzed by HPLC (Nexera X2) with KINETEX® (100×3 mm, 2.6 μm; PHENOMENEX®) column and metabolites are monitored with absorbance at 254 nm. Internal standards for NAD+, Nicotinamide (Nam), ADP Ribose (ADPR) were used to generate standard curves for quantification of the respective compounds. The levels for each compound in each experimental sample was normalized to the 0 min time point that was analyzed concurrently.
These analogs were tested using an assay that makes use of a bacterially-expressed tagged version of the SARM1 TIR fragment, as described in Example 2. Displaying this artificial SARM1 TIR domain on a solid surface (i.e. affinity beads) generates an active NAD+ cleavage enzyme.

[2] = biological target: human SARM1 SAM-TIR (Homo sapiens (Human), UniProt Q6SZW1); assay: biochemical; conditions: for ADPR Production (%) / NAD Consumption (%): single point screening at 150 μM
Excerpt: When these NRK1-expressing cells are supplemented with NR, NAD+ levels are augmented and cell viability is enhanced to enable efficient production and purification of the constitutively active human SARM1 SAM-TIR protein fragment. To express SARM1 SAM-TIR, the SARM1 N-terminal auto-inhibitory domain was deleted, keeping only the initiator Met. […] The fragment encoding the SARM1 SAM-TIR protein was cloned into the FCIV expression construct by standard methods to generate the FCIV-SST vector.
NRK1-HEK293T cells were seeded onto 150 cm^2 plates at 20×10^6 cells per plate in 25 mL growth medium comprised of 90% DMEM (Gibco 11965-084) and 10% FBS (Sigma F0926). The next day, cells were transfected by first premixing 15 ug FCIV-SST SST (SAM-TIR expression plasmid from Washington University) with 45 ul X-tremeGENE 9 DNA Transfection Reagent (Roche product #06365787001) and 750 ul OptiMEM (Gibco 31985062) and then adding this mix directly to the cells. […] Forty-eight hours after transfection, cells were harvested, pelleted by centrifugation at 1,000 rpm (Eppendorf Centrifuge 5804R, 15 Amp Version), and washed once with cold PBS (0.01 M phosphate buffered saline NaCl 0.138 M; KCl 0.0027 M; pH 7.4). The cells were resuspended in 0.5 ml PBS with protease inhibitors (Complete protease inhibitor cocktail, Roche product #11873580001). Cell lysates were prepared by sonication (Misonix Microson Ultrasonic Cell Disruptor, output=3, 20 episodes of stroke). The lysates were centrifuged at 12,000×g for 10 min at 4° C. (Eppendorf Centrifuge 5415C) to remove cell debris and the aliquots of supernatant (containing SARM1 SAM-TIR protein) were stored at −80° C. for later use. Protein concentration was determined by the Bicinchoninic (BCA) method and used to normalize lysate concentrations.
Reaction mixtures were prepared on ice by mixing 10 ul of SARM1 SAM-TIR cell lysate (320 fold dilution of lysate 11-3-2016, or 80 fold lysate dilution for assessment of time dependence) in PBS (pH 7.4) with 5 ul of compound stock. Compounds were first dissolved DMSO at 10 mM (final stock concentration). A 10 point compound dilution curve was prepared first with a 20 ul to 40 ul serial dilution in DMSO, followed by a 10 fold dilution (12 ul+108 ul) in PBS.

[3] = biological target: SARM1 SAM-TIR lysate (Homo sapiens (Human), UniProt Q6SZW1); assay: HPLC-based SARM1 SAM-TIR NADase assay 1 (inhibitor screen, NAD+/ADPR ratio); type: biochemical
Method: NRK1-HEK293T cells were seeded onto 150 cm^2 plates at 20×10^6 cells per plate. The next day, the cells were transfected with 15 μg FCIV-SST (SAM-TIR expression plasmid, SEQ ID NO: 9) using X-[…]™ 9 DNA Transfection Reagent (Roche product #06365787001). The cultures were supplemented with 1 mM NR at time of transfection to minimize toxicity from SAM-TIR overexpression. Forty-eight hours after transfection, cells were harvested, pelleted by centrifugation at 1,000 rpm (Sorvall ST 16R centrifuge, Thermo Fisher), and washed once with cold PBS (0.01 M phosphate buffered saline NaCl 0.138 M; KCl 0.0027 M; pH 7.4). The cells were resuspended in PBS with protease inhibitors (cOmplete™ protease inhibitor cocktail, Roche product #11873580001) and cell lysates were prepared by sonication (Branson Sonifer 450, output=3, 20 episodes of stroke). […] Protein concentration was determined by the Bicinchoninic (BCA) method and used to normalize lysate concentrations. […]
Reaction mixtures were prepared on ice by mixing SARM1 SAM-TIR cell lysate (0.14 μg total protein), compound stock (5 μM final concentration), and PBS (pH 7.4) to a final volume of 12 μl. […] The supernatant was transferred and analyzed by HPLC (Shimadzu Nexera X2) with KINETEX® (100×3 mm, 2.6 μm; PHENOMENEX®) column and metabolites were monitored with absorbance at 254 nm.
To identify inhibitors of SARM1 NADase activity, the levels of NAD+ and the enzymatic cleavage product ADPR in the reactions were quantified by HPLC. From these values, the NAD+/ADPR ratio for each compound was calculated and the ratio used as a measure of NAD+ cleavage activity (Note: there is a small residual but detectable ADPR signal in control samples derived from the HEK293 lysate). […]
The NAD+/ADPR ratio was used to determine the NAD+ cleavage activity of the SARM1 SAM-TIR lysate using the HPLC based assay 1. It will be appreciated that any precise, quantitative method of measuring NAD+ levels could be used for the detection of SARM1 NADase activity. […]

[4] = 10 point curve 0.01-250 uM, read-out: IC50 (μM, ADPR Production)
[5] = 10 point curve 0.01-250 uM, read-out: IC50 (μM, NAD Consumption)
[6] = NAD consumption, 7 point curve 0-about 6 uM, read-out: IC50

Sequence of SARM1 SAM-TIR lysate (Q6SZW1 other isoform, or with tags, fused parts or gaps): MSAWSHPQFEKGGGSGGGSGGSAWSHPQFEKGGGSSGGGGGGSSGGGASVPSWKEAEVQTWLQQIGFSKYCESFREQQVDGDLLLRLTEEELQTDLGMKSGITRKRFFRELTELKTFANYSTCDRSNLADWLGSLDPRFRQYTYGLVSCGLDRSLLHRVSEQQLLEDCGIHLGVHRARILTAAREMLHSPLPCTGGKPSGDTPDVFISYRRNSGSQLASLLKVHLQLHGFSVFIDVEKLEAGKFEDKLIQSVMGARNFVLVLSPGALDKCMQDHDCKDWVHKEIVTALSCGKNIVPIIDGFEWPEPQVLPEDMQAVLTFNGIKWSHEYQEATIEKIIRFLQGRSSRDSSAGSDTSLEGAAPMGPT
Sequence of SARM1 TIR (Q6SZW1 other isoform, or with tags, fused parts or gaps): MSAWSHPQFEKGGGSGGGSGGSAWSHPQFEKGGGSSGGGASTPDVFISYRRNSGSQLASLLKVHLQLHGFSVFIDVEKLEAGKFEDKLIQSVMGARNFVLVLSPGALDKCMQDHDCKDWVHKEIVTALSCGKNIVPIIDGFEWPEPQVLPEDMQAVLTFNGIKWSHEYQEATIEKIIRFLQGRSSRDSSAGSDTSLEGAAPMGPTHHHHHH

Compound: CC(=O)c1cccnc1 [3-acetylpyridine]
- Inhibitor [1]: No
- Substrate [1]: No

Compound: NC(=O)c1ccc(N)nc1 [6-aminonicotinamide]
- Inhibitor [1]: No
- Substrate [1]: No

Compound: NC(=O)c1ccccc1 [Benzamide]
- Inhibitor [1]: No
- Substrate [1]: No

Compound: CN(C)c1nc(=Nc2cccc(Cl)c2)ss1 [Compound 622689]
- inhibition of NADase activity of purified SARM1 TIR ([1]; compound at 5 μM, 5 μM NAD+): inhibit NADase activity of purified SARM1 TIR

Compound: NC(=O)C1CCCc2c1[nH]c1ccc(Cl)cc21 (stereo not shown) [Ex-527]
- Substrate [1]: No

Compound: Cc1c(OCC(F)(F)F)ccnc1C[S+]([O-])c1nc2ccccc2[nH]1 (stereo not shown) [I^A-2, lansoprazole]
- IC50 [2, 4]: 3.3 µM
- IC50 [2, 5]: 3.5 µM

Compound: COCCCOc1ccnc(C[S+]([O-])c2nc3ccccc3[nH]2)c1C (stereo not shown) [I^A-6, rabeprazole]
- IC50 [2, 4]: 3.2 µM
- IC50 [2, 5]: 3.3 µM
- inhibition at 10 µM ([3]; at 10 μM, 5 μM NAD): 95%
- inhibition at 30 µM ([3]; at 30 μM, 5 μM NAD): 98.8%

Compound: COc1ccc2[nH]c([S+]([O-])Cc3ncc(C)c(OC)c3C)nc2n1 (stereo not shown) [I^A-8, tenatoprazole]
- IC50 [2, 4]: 8.7 µM
- IC50 [2, 5]: 7.4 µM
- ADPR Production (%) [2]: C (“C” indicating <50%)
- NAD Consumption (%) [2]: B (“B” indicating between 50%-75%)
- identified as SARM1 NADase inhibitor in initial screening [3]: SARM1 NADase inhibitors

Compound: Cc1c(OCC(F)(F)F)ccnc1CSc1nc2ccccc2[nH]1 [I^A-9, lansoprazole sulfide]
- ADPR Production (%) [2]: A (“A” indicating >75%)
- NAD Consumption (%) [2]: A (“A” indicating >75%)

Compound: Cc1c(OCC(F)(F)F)ccnc1CS(=O)(=O)c1nc2ccccc2[nH]1 [I^A-10, lansoprazole sulfone]
- ADPR Production (%) [2]: A (“A” indicating >75%)
- NAD Consumption (%) [2]: A (“A” indicating >75%)

Compound: COc1ccc2c(c1)nc([S+]([O-])Cc1ncc(C)c(OC)c1C)n2C (stereo not shown) [I^A-11, N-methyl omeprazole]
- ADPR Production (%) [2]: A (“A” indicating >75%)
- NAD Consumption (%) [2]: A (“A” indicating >75%)

Compound: COc1ccc2[n-]c([S+]([O-])Cc3ncc(C)c(OC)c3C)nc2c1.[Na+] (stereo not shown) [I^A-13, sodium esomeprazole]
- ADPR Production (%) [2]: B (“B” indicating between 50%-75%)
- NAD Consumption (%) [2]: A (“A” indicating >75%)

Compound: CN(C)c1n/c(=N/c2cccc(Cl)c2)ss1 [I^B-1]
- IC50 [2, 6]: ~0.7 µM

Compound: CN(C)c1n/c(=N/Cc2ccco2)ss1 [I^B-2]
- IC50 [2, 6]: ~0.15 µM

Compound: O=Cc1cccnc1 [Nicotinaldehyde]
- Inhibitor [1]: No
- Substrate [1]: No

Compound: NC(=O)c1ccc[n+]([C@@H]2O[C@H](COP(=O)([O-])OP(=O)(O)OC[C@H]3O[C@@H](n4cnc5c4ncn4ccnc54)[C@H](O)[C@@H]3O)[C@@H](O)[C@H]2O)c1 [Nicotinamide 1, N6-ethenoadenine dinucleotide]
- Substrate [1]: No

Compound: NC(=O)c1ccc[n+](C2OC(COP(=O)(O)OP(=O)(O)OCC3OC(n4cnc5c(=O)[nH]cnc54)C(O)C3O)C(O)C2O)c1 (stereo not shown) [Nicotinamide Hypoxanthine dinucleotide]
- Inhibitor [1]: inhibitor and Yes
- Substrate [1]: substrate and Yes

Compound: NC(=O)C1=CN([C@@H]2O[C@H](COP(=O)(O)OP(=O)(O)OC[C@H]3O[C@@H](n4cnc5c(N)ncnc54)[C@H](OP(=O)(O)O)[C@@H]3O)[C@@H](O)[C@H]2O)C=CC1 [Nicotinamide adenine dinucleotide 2′-phosphate, reduced]
- Inhibitor [1]: Unclear

Compound: NC(=S)c1cccnc1 [Thionicotinamide]
- Inhibitor [1]: No
- Substrate [1]: No

From patent US11903935B2, “Inhibitors of SARM1 NADase activity and uses thereof” (Washington University, priority 2016, dated 2024)
